Results from patent publication EP0536424A1, “NOVEL BENZOPYRAN DERIVATIVE” (Japan Tobacco Inc., priority 1991, dated 1992).
Read-outs that look alike come from different tables or passages of the source.

Experiments:
[1] = tested on: aorta thoracica of a male Wister rat; experiment: Blood vessel relaxing action (relaxation of phenylephrine-contracted, endothelium-denuded spiral strip); details: concentration inhibiting 50% of the contraction achieved by phenylephrine (10⁻⁶ M), compound 10⁻⁸ to 10⁻⁵ M added cumulatively, 37°C, read-out: IC₅₀
Protocol: Preparation of the extracted blood vessel sample and the experiment were conducted by the methods of Toda et al. described in J. Cardiovasc. Pharmacol., 7,1118 (1985). The aorta thoracica of a male Wister rat was used as a sample. To be more specific, a spiral piece was prepared by peeling endothelium about 1 cm long from the artery to provide the sample. The endothelium was peeled off by rubbing with a swab. A Krebs-Hensterite solution of 37°C saturated with 95% O₂ and 5% CO₂ was used as a nutrient solution. After application of 1g as suspending load to the sample, changes in tension were measured by rectigraph via an isometric transducer. After the aorta thoracica was contracted by phenylephrine (10⁻⁶ M), a compound to be examined (an example compound) of 10⁻⁸ to 10⁻⁵ M was cumulatively added to determine the relaxing action of the compound quantitatively. The relaxing effect of the example compound was determined in terms of the concentration IC₅₀ of the compound required for inhibiting 50% of the contraction achieved by phenylephrine (10⁻⁶ M). Lema Kalin was used as reference compound A. On the other hand, reference compound B was provided by N'-cyano-N-(trans-6-cyano-3,4-dihydro-2,2-dimethyl-3-hydroxy-2H-1-benzopyran-4-yl)-benzamidine. […]

[2] = tested on: coronary blood flow rate; experiment: Action on the coronary blood flow rate in dog (anesthetized, left coronary artery perfused with femoral arterial blood); format: in vivo; details: administered into the coronary artery; for ED 50: dose increasing coronary blood flow rate by 50% of the reaction caused by niphedipine 1 µg (set at 100%); for Durationng: time during which the compound produced at least 50% of its efficacy at the ED₅₀ dosage
Protocol: Dogs with ether sex were anesthetized with pentobarbital (30 mg/kg,intravenous administration), followed by intravenous heparin administration (500 U/kg) to the dogs under artificial respiration. Then, according to Yago's method described in Folia pharmacol. japon., 57,380 (1961), the left coronary artery was perfused with the right femoral arterial blood so as to measure the blood perfusion amount with an electromagnetic blood flow meter. The example compound was administered into the coronary artery by using a micro syringe just before a stainless steel cannula inserted into the coronary artery. The increase in the coronary blood flow rate caused by the example compound was determined by standardizing the reactivity among the specimen subject, with the reaction caused by the niphedipine administration (1 µg) into the coronary artery of the specimen subject being set at 100%. To be more specific, the intensity of the action due to the example compound was determined in terms of ED₅₀ required for increasing the coronary blood flow rate by 50% on the basis of the reaction caused by niphedipine administered into the coronary artery in an amount of 1 µg. Further, the duration of the effect produced by the example compound was determined in terms of the time (minutes) during which the compound produced at least 50% of efficacy on the basis that the efficacy of the compound in the ED₅₀ dosage noted above was set at 100%. […]

IC50 ([1]; Rattus norvegicus)	IC50 [1]	Structure (SMILES)	ED 50 [2]	Durationng [2]
60 nM		CC1(C)Oc2ccc(C#N)cc2[C@@H](NC(=NC#N)c2ccc(F)cc2)[C@@H]1O (relative stereo) [Example 16, N'-cyano-N-(trans-6-cyano-3,4-dihydro-2,2-dimethyl-3-hydroxy-2H-1-benzopyran-4-yl)-4-fluorobenzamidine]	1.5 µg	2.5 minuted
	400 nM	CC1(C)Oc2ccc(C#N)cc2[C@@H](N2CCCC2=O)[C@@H]1O [Reference Compound A, Lema Kalin, reference compound]	1.1 µg	2.5 minuted
1000 nM		CC1(C)Oc2ccc(C#N)cc2[C@@H](NC(=NC#N)c2ccccc2)[C@@H]1O (relative stereo) [Reference Compound B, N'-cyano-N-(trans-6-cyano-3,4-dihydro-2,2-dimethyl-3-hydroxy-2H-1-benzopyran-4-yl)-benzamidine, reference compound]	4.2 µg	1.9 minuted
600 nM		CC1(C)Oc2ccc(C#N)cc2[C@@H](NC(=NC#N)c2cccnc2)[C@@H]1O (relative stereo) [Example 3, N'-cyano-N-(trans-6-cyano-3,4-dihydro-2,2-dimethyl-3-hydroxy-2H-1benzopyran-4-yl]-3-pyridinecarboxamidine]	1.9 µg	4.0 minuted
1000 nM		CC1(C)Oc2ccc(C#N)cc2[C@@H](NC(=N[N+](=O)[O-])c2ccccn2)[C@@H]1O (relative stereo) [Example 14, N-(trans-6-cyano-3,4-dihydro-2,2-dimethyl-3-hydroxy-2H-1-benzopyran-4yl)-N'-nitro-2-pyridinecarboxamidine]		
